Experimental data published in PubChem BioAssay AID1963856 (Molecular Pharmacology Branch, DTP, NCI, 2024).
pIC50: −log10 of the molar value.

System: LG0567-F671-PDC KRAS tumor spheroid viability
Test: Anticancer human tumor LG0567-F671-PDC patient-derived lung adenocarcinoma cell line growth inhibition [KRAS2]
Conditions: spheroids with HUVEC and MSC; for pIC50: curve of first compound; for viability, T/C: stronger effect = lower value
Summary of the method: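 Combination screen of spheroid viability in tumor-cell co-cultures with endothelial (HUVEC) and mesenchymal stem cell stroma. Each agent was tested in half-log dilutions, topping at clinical Cmax or at 10 microM without a known Cmax.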

[1] = second compound 0.1 µM, first compound 0.01 µM
[2] = second compound 0.1 µM, first compound 0.0316 µM
[3] = second compound 0.1 µM, first compound 0.1 µM
[4] = second compound 0.1 µM, first compound 0.316 µM
[5] = second compound 0.1 µM, first compound 1 µM
[6] = second compound 0.1 µM, first compound 3.16 µM
[7] = second compound 0.316 µM, first compound 0.01 µM
[8] = second compound 0.316 µM, first compound 0.0316 µM
[9] = second compound 0.316 µM, first compound 0.1 µM
[10] = second compound 0.316 µM, first compound 0.316 µM
[11] = second compound 0.316 µM, first compound 1 µM
[12] = second compound 0.316 µM, first compound 3.16 µM
[13] = second compound 1 µM, first compound 0.01 µM
[14] = second compound 1 µM, first compound 0.0316 µM
[15] = second compound 1 µM, first compound 0.1 µM
[16] = second compound 1 µM, first compound 0.316 µM
[17] = second compound 1 µM, first compound 1 µM
[18] = second compound 1 µM, first compound 3.16 µM
[19] = second compound 3.16 µM, first compound 0.01 µM
[20] = second compound 3.16 µM, first compound 0.0316 µM
[21] = second compound 3.16 µM, first compound 0.1 µM
[22] = second compound 3.16 µM, first compound 0.316 µM
[23] = second compound 3.16 µM, first compound 1 µM
[24] = second compound 3.16 µM, first compound 3.16 µM
[25] = second compound 10 µM, first compound 0.01 µM
[26] = second compound 10 µM, first compound 0.0316 µM
[27] = second compound 10 µM, first compound 0.1 µM
[28] = second compound 10 µM, first compound 0.316 µM
[29] = second compound 10 µM, first compound 1 µM
[30] = second compound 10 µM, first compound 3.16 µM
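Also: drug exposure lasted seven days after spheroids formed for three days.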
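For viability, T/C in this document: 100% = DMSO vehicle control viability.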

| Compound | pIC50 (second compound 0.1 µM) | pIC50 (second compound 0.316 µM) | pIC50 (second compound 1 µM) | pIC50 (second compound 3.16 µM) | pIC50 (second compound 10 µM) | viability, T/C [2] [%] | viability, T/C [3] [%] | viability, T/C [4] [%] | viability, T/C [5] [%] | viability, T/C [8] [%] | viability, T/C [9] [%] | viability, T/C [10] [%] | viability, T/C [11] [%] | viability, T/C [14] [%] | viability, T/C [15] [%] | viability, T/C [16] [%] | viability, T/C [17] [%] | viability, T/C [20] [%] | viability, T/C [21] [%] | viability, T/C [22] [%] | other results |
| --- | --- | --- | --- | --- | --- | --- | --- | --- | --- | --- | --- | --- | --- | --- | --- | --- | --- | --- | --- | --- | --- |
| CC1COCCN1c1cc(-c2ccnn2C)c2ccnc(-c3ccn[nH]3)c2n1 (stereo not given) + CNCc1ccccc1-c1csc(C(C)Nc2nc(C)nc3cc(OC)c(OC)cc23)c1 | < 5.50 | 6.43 | 7.38 | 6.80 | > 8.00 | 74.4 | 60.2 | 58.9 | 48.6 | 77.7 | 60.6 | 50.6 | 46 | 50.7 | 42.6 | 41.4 | 34.7 | 58.5 | 61.6 | 29.8 | viability, T/C [1]: 87.1%; viability, T/C [6]: 54%; viability, T/C [7]: 85.9%; viability, T/C [12]: 49.2%; viability, T/C [13]: 68%; viability, T/C [18]: 33.4%; viability, T/C [19]: 65.6%; viability, T/C [23]: 33.2%; viability, T/C [24]: 36.2%; viability, T/C [25]: 0.18%; viability, T/C [26]: 0.17%; viability, T/C [27]: 0.15%; viability, T/C [28]: 0.17%; viability, T/C [29]: 0.74%; viability, T/C [30]: 0.24% |
| CCN1CCN(Cc2ccc(Nc3ncc(F)c(-c4cc(F)c5nc(C)n(C(C)C)c5c4)n3)nc2)CC1 + CNCc1ccccc1-c1csc(C(C)Nc2nc(C)nc3cc(OC)c(OC)cc23)c1 | 6.31 | 7.17 | 8.19 | 7.86 | > 8.50 | 65 | 62.6 | 50.1 | 47.3 | 51.1 | 54.8 | 43.8 | 42 | 44.3 | 37.8 | 39.9 | 33.9 | 0.63 | 11.6 | 3.01 | viability, T/C (second compound 0.1 µM, first compound 0.00316 µM): 78%; viability, T/C [1]: 76.3%; viability, T/C (second compound 0.316 µM, first compound 0.00316 µM): 77.2%; viability, T/C [7]: 60.5%; viability, T/C (second compound 1 µM, first compound 0.00316 µM): 52%; viability, T/C [13]: 50.5%; viability, T/C (second compound 3.16 µM, first compound 0.00316 µM): 60.6%; viability, T/C [19]: 74.2%; viability, T/C [23]: 0.17%; viability, T/C (second compound 10 µM, first compound 0.00316 µM): 0.18%; viability, T/C [25]: 0.15%; viability, T/C [26]: 0.13%; viability, T/C [27]: 0.12%; viability, T/C [28]: 0.13%; viability, T/C [29]: 0.18% |
| CCNC(=O)CC1N=C(c2ccc(Cl)cc2)c2cc(OC)ccc2-n2c(C)nnc21 (stereo not given) + CNCc1ccccc1-c1csc(C(C)Nc2nc(C)nc3cc(OC)c(OC)cc23)c1 | 6.00 | 6.22 | 6.44 | 6.90 | > 7.50 | 96.7 | 92.1 | 66.1 | 49.9 | 85.4 | 87.6 | 64.1 | 39.2 | 70.2 | 67.6 | 49 | 39 | 72.3 | 62.5 | 1.46 | viability, T/C [6]: 42.1%; viability, T/C (second compound 0.1 µM, first compound 10 µM): 30%; viability, T/C [12]: 32.7%; viability, T/C (second compound 0.316 µM, first compound 10 µM): 30.6%; viability, T/C [18]: 29.7%; viability, T/C (second compound 1 µM, first compound 10 µM): 25.5%; viability, T/C [23]: 0.1%; viability, T/C [24]: 2.03%; viability, T/C (second compound 3.16 µM, first compound 10 µM): 1.27%; viability, T/C [26]: 0.18%; viability, T/C [27]: 0.15%; viability, T/C [28]: 0.22%; viability, T/C [29]: 0.09%; viability, T/C [30]: 0.09%; viability, T/C (second compound 10 µM, first compound 10 µM): 0.15% |
